Measured values: article PMC12390126, “Human Skin Permeation of Ethoxy- and Propoxypropanol Commonly Found in Water-Based Products” (Toxics, 2025)

Tests used:
[1] = In vitro static diffusion cell skin permeation (influence of water); type: in vitro ADME, human; settings: static cells; 0, 25, 50 or 75% of water
Source text: Human abdominal full thickness skin was obtained as surgical waste from the Lausanne University Hospital (CHUV) and the Department of Musculoskeletal Medicine (DAL) Biobank, Switzerland, according to the Swiss ethics in the canton Vaud (CER-VD: Commission cantonal d’éthique de la recherche sur l’être humain, ethical protocol 264/12). The surgeon obtained written consent from the patients before the start of the operation. The collected skin was anonymized, and only sex and age were provided for this study. Human skin was obtained directly after the surgery and immediately dermatomed to a thickness of 800 µm (Acculan®II, B. Braun/Aesculap, Sempach, Switzerland) to account for any potential storage effects on its in vitro mass balance. The experiments were run with triplicate skin samples (n = 3) from three different donors giving a total of nine samples for each experiment. The skin samples used for this study were stored at −20 °C for up to four years. […]
The concentrations of parent compounds were quantified by gas-chromatography tandem mass spectrometry (GC-MS/MS). […] The limits of detections (LODs) for PGEE and PGPE were 0.045 µg/mL and 0.035 µg/mL, respectively, and the limits of quantifications (LOQs) for PGEE and for PGPE were 0.135 µg/mL and 0.105 µg/mL, respectively. […]

[2] = parameters: method as in earlier work; settings: cited from earlier work
[3] = Mass balance of flow-through diffusion cell experiments; type: in vitro ADME, human; settings: for Receptor Chamber (percentage of applied dose): remaining fluid at end
Protocol: A mass balance was performed only for flow-through diffusion cell experiments following the OECD guidelines, where the mean recovery should be 100 ± 10% [20]. The following components of the test system were analyzed to determine recovery: donor chamber, skin, and receptor chamber. The donor chamber was rinsed three times with 500 µL of water (donor chamber samples), the skin disk was sonicated three times for five minutes in water (skin samples), and the remaining fluid receptor chamber was collected (receptor chamber samples). If liquid was present in the donor chamber at the end of the experiment, it was also collected and analyzed with the donor chamber samples. PGE concentrations were quantified in all mass balance samples by GC-MS/MS, i.e., donor chamber rinsing water, water collected after sonication of skin, and remaining fluid receptor chamber. Mean concentrations of PGEE and PGPE were calculated for all cells in both conditions (neat or aqueous), and the results were reported as the percentage of the applied dose.

Donor Chamber (percentage of applied dose) ([3]; 50:50 (aq)) | Receptor Chamber over 24 h (sum of receptor fluid collected at different time points) ([3]; 50:50 (aq)) | Recovery (percentage of applied dose) ([3]; 50:50 (aq)) | Receptor Chamber (percentage of applied dose) ([3]; 50:50 (aq)) | Donor Chamber (percentage of applied dose) ([3]; neat) | Receptor Chamber over 24 h (sum of receptor fluid collected at different time points) ([3]; neat) | Recovery (percentage of applied dose) ([3]; neat) | Receptor Chamber (percentage of applied dose) ([3]; neat) | SMILES | mean cumulative amount in receptor fluid after 24 h: trend with percentage of water [1] | LogP [2]
0.02% | 44.0% | 45.1% | 1.1% | 0.0003% | 16.8% | 17.3% | 0.5% | CCOCC(C)O (centres unmarked) [PGEE] | increased with the percentage of water in the applied mixture | 0.2
0.05% | 24.1% | 24.6% | 0.4% | 0.18% | 9.4% | 9.9% | 0.3% | CCCOCC(C)O (centres unmarked) [PGPE, propoxypropanol] | reached a maximum when diluted with 25 % water (75:25), followed by a decrease at higher water concentrations | 0.7
